{"source": "paper PMC9668969", "about": "(Nature Communications, 2022)", "test_system": "WT ELIC", "test": "Fluorescence stopped-flow liposomal Tl+ flux assay, symmetric liposomes", "assay_type": "biochemical, Erwinia chrysanthemi", "conditions": "for Avg (stopped-flow fluorescence quenching rate): average of experiments; for Rate (stopped-flow fluorescence quenching rate): single experiments", "description": "The fluorescence sequential-mixing stopped-flow liposomal flux measurements were carried using an SX20 stopped-flow spectrofluorometer (Applied Photophysics) and Pro-Data SX software[13],[30]. 7.5 mg of the respective lipid mixture (POPC, 1:1 POPC: POPE, 1:1 POPC:POPG, 3:1 POPC:POPE, 3:1 POPC:POPG, 2:1:1 POPC:POPE:POPG) was dried in a glass vial to a thin film under a constant stream of N2. The lipids were then further dried under vacuum in a desiccator overnight. The following day the lipids were hydrated in 500 µl of reconstitution buffer (100 mM NaNO3, 10 mM HEPES, pH 7) (Buffer R), 250 µl of 75 mM 8-Aminonaphthalene-1,3,6-Trisulfonic Acid (ANTS, ThermoFisher Scientific) in buffer R, and doped with ~18 mg of CHAPS (Anatrace). The mixture was vortexed and then sonicated with heat until completely solubilized. Following the sonication, the solution was brought to RT then 3.5 µl of 6.7 mg/ml ELIC in Buffer A with 0.02% DDM was added (3 µg per mg of lipid). This combined solution was incubated at RT for 30 min, followed by the addition of 1 ml of 1:1 v/v SM-2 BioBeads in Buffer R and an additional 250 µl of 75 mM ANTS in Buffer R. This mixture was incubated at RT for 2.5 hr with gentle mixing. The liposome suspension was then extruded with an Avanti mini-extruder and 0.1 µm membrane (30×). The extruded liposomes were stored at 13 °C overnight with gentle rotation. The next day, the liposomes were diluted to 2.5 mL using assay buffer (140 mM NaNO3, 10 mM HEPES, pH 7) (Stopped-flow Buffer A), loaded into a PD-10 desalting column (Cytiva), eluted with 3 mL of Stopped-flow Buffer A and subsequently diluted 5-fold with Stopped-flow Buffer A.\nUsing propylamine as the agonist, the assay and analysis was carried out as previously described[13],[30]. ELIC-containing liposomes were first mixed 1:1 with Buffer A containing 2× the concentration of propylamine. After a variable delay of 10 ms to 25 s, the sample was then mixed 1:1 with a quenching buffer (90 mM NaNO3, 50 mM TlNO3, 10 mM HEPES, pH 7), and ANTS fluorescence (ex. 360 nm, fluorescence above 420 nm) was recorded for 1 s. For each delay time, 5 repeat measurements were obtained. The data were collected using Applied Photophysics Pro-Data SX software. The fluorescence quenching traces were fit to a stretched exponential (Eq. 2a) and the rate of Tl^+ influx was determined at 2 ms (Eq. 2b).2a Ft=F∞+F0−F∞⋅e^−t/τ^β 2b kt=β/τ⋅2ms/τ^(β−1) where Ft, F∞, F0 are the fluorescence at time t, final fluorescence and initial fluorescence. τ is the time constant, β the stretched exponential factor, and kt the calculated rate of Tl^+ influx at 2 ms. The time course of desensitization was also fit to a double exponential and a weighted time constant was calculated as was done for the patch-clamp data using Origin 2019b. All replicates were taken from independent samples.", "key": {"[1]": {"conditions": "WT in PC liposomes, 0.3 mM PA, delay time 0"}, "[2]": {"conditions": "WT in PC liposomes, 1 mM PA, delay time 0"}}, "note": "Values joined by “and” are separate entries in the source; they are usually repeats but may differ in a detail not shown here. Equal entries are not always repeated."}
{"smiles": "CCCN", "note": "[propylamine]", "values": [{"measurement": "Avg (stopped-flow fluorescence quenching rate)", "setting": "WT in 2:1:1 PC:PE:PG liposomes, 3 mM PA, delay time 5", "result": 145.791}, {"measurement": "Avg (stopped-flow fluorescence quenching rate)", "setting": "WT in 2:1:1 PC:PE:PG liposomes, 3 mM PA, delay time 10", "result": 107.502}, {"measurement": "Avg (stopped-flow fluorescence quenching rate)", "setting": "WT in 2:1:1 PC:PE:PG liposomes, 3 mM PA, delay time 25", "result": 38.6642}, {"measurement": "Rate (stopped-flow fluorescence quenching rate)", "setting": "WT in 2:1:1 PC:PE:PG liposomes, 10 mM PA, delay time 0", "result": 0}, {"measurement": "Avg (stopped-flow fluorescence quenching rate)", "setting": "WT in 2:1:1 PC:PE:PG liposomes, 10 mM PA, delay time 0.025", "result": 169.086}, {"measurement": "Avg (stopped-flow fluorescence quenching rate)", "setting": "WT in 2:1:1 PC:PE:PG liposomes, 10 mM PA, delay time 0.05", "result": 180.798}, {"measurement": "Avg (stopped-flow fluorescence quenching rate)", "setting": "WT in 2:1:1 PC:PE:PG liposomes, 10 mM PA, delay time 0.05 [sic] (between 0.25 and 1)", "result": 198.043}, {"measurement": "Rate (stopped-flow fluorescence quenching rate)", "setting": "WT in 2:1:1 PC:PE:PG liposomes, 10 mM PA, delay time 0.05 [sic] (between 0.25 and 1), listed as PA", "result": "249.635 and 148.719 and 195.774"}, {"measurement": "Avg (stopped-flow fluorescence quenching rate)", "setting": "WT in 2:1:1 PC:PE:PG liposomes, 10 mM PA, delay time 0.1", "result": 165.345}, {"measurement": "Avg (stopped-flow fluorescence quenching rate)", "setting": "WT in 2:1:1 PC:PE:PG liposomes, 10 mM PA, delay time 0.25", "result": 213.572}, {"measurement": "Rate (stopped-flow fluorescence quenching rate)", "setting": "WT in 2:1:1 PC:PE:PG liposomes, 10 mM PA, delay time 0.25, listed as PA", "result": "256.17 and 144.253 and 240.291"}, {"measurement": "Avg (stopped-flow fluorescence quenching rate)", "setting": "WT in 2:1:1 PC:PE:PG liposomes, 10 mM PA, delay time 1", "result": 169.644}, {"measurement": "Rate (stopped-flow fluorescence quenching rate)", "setting": "WT in 2:1:1 PC:PE:PG liposomes, 10 mM PA, delay time 1, listed as PA", "result": "228.219 and 122.935 and 157.778"}, {"measurement": "Avg (stopped-flow fluorescence quenching rate)", "setting": "WT in 2:1:1 PC:PE:PG liposomes, 10 mM PA, delay time 2.5", "result": 155.074}, {"measurement": "Avg (stopped-flow fluorescence quenching rate)", "setting": "WT in 2:1:1 PC:PE:PG liposomes, 10 mM PA, delay time 5", "result": 103.359}, {"measurement": "Avg (stopped-flow fluorescence quenching rate)", "setting": "WT in 2:1:1 PC:PE:PG liposomes, 10 mM PA, delay time 10", "result": 60.9022}, {"measurement": "Avg (stopped-flow fluorescence quenching rate)", "setting": "WT in 2:1:1 PC:PE:PG liposomes, 10 mM PA, delay time 25", "result": 14.6606}, {"measurement": "Rate (stopped-flow fluorescence quenching rate)", "setting": "WT in 2:1:1 PC:PE:PG liposomes, 10 mM PA, delay time 25, listed as PA", "result": "13.7363 and 15.821 and 14.4245"}, {"measurement": "Rate (stopped-flow fluorescence quenching rate)", "setting": "WT in 2:1:1 PC:PE:PG liposomes, 30 mM PA, delay time 0", "result": 0}, {"measurement": "Avg (stopped-flow fluorescence quenching rate)", "setting": "WT in 2:1:1 PC:PE:PG liposomes, 30 mM PA, delay time 0.025", "result": 74.8381}, {"measurement": "Avg (stopped-flow fluorescence quenching rate)", "setting": "WT in 2:1:1 PC:PE:PG liposomes, 30 mM PA, delay time 0.05", "result": 63.4545}, {"measurement": "Avg (stopped-flow fluorescence quenching rate)", "setting": "WT in 2:1:1 PC:PE:PG liposomes, 30 mM PA, delay time 0.1", "result": 63.448}, {"measurement": "Avg (stopped-flow fluorescence quenching rate)", "setting": "WT in 2:1:1 PC:PE:PG liposomes, 30 mM PA, delay time 0.25", "result": 66.7765}, {"measurement": "Avg (stopped-flow fluorescence quenching rate)", "setting": "WT in 2:1:1 PC:PE:PG liposomes, 30 mM PA, delay time 0.5", "result": 62.7383}, {"measurement": "Avg (stopped-flow fluorescence quenching rate)", "setting": "WT in 2:1:1 PC:PE:PG liposomes, 30 mM PA, delay time 1", "result": 67.601}, {"measurement": "Avg (stopped-flow fluorescence quenching rate)", "setting": "WT in 2:1:1 PC:PE:PG liposomes, 30 mM PA, delay time 2.5", "result": 40.183}, {"measurement": "Avg (stopped-flow fluorescence quenching rate)", "setting": "WT in 2:1:1 PC:PE:PG liposomes, 30 mM PA, delay time 5", "result": 15.7901}, {"measurement": "Avg (stopped-flow fluorescence quenching rate)", "setting": "WT in 2:1:1 PC:PE:PG liposomes, 30 mM PA, delay time 10", "result": 23.9739}, {"measurement": "Avg (stopped-flow fluorescence quenching rate)", "setting": "WT in 2:1:1 PC:PE:PG liposomes, 30 mM PA, delay time 25", "result": 10.034}, {"measurement": "Rate (stopped-flow fluorescence quenching rate)", "setting": "WT in 2:1:1 PC:PE:PG liposomes, 30 mM PA, delay time 25, listed as PA", "result": "8.132 and 11.9359"}, {"measurement": "Avg (stopped-flow fluorescence quenching rate)", "setting": "[1]", "result": 0}, {"measurement": "Rate (stopped-flow fluorescence quenching rate)", "setting": "[1]", "result": 0}, {"measurement": "Avg (stopped-flow fluorescence quenching rate)", "setting": "WT in PC liposomes, 0.3 mM PA, delay time 0.01", "result": 0.08537}, {"measurement": "Rate (stopped-flow fluorescence quenching rate)", "setting": "WT in PC liposomes, 0.3 mM PA, delay time 0.01, listed as PA", "result": "0.07068 and 0.08871 and 9.67E-02"}, {"measurement": "Avg (stopped-flow fluorescence quenching rate)", "setting": "WT in PC liposomes, 0.3 mM PA, delay time 0.025", "result": 0.09939}, {"measurement": "Avg (stopped-flow fluorescence quenching rate)", "setting": "WT in PC liposomes, 0.3 mM PA, delay time 0.05", "result": 0.06401}, {"measurement": "Avg (stopped-flow fluorescence quenching rate)", "setting": "WT in PC liposomes, 0.3 mM PA, delay time 0.1", "result": 0.08141}, {"measurement": "Avg (stopped-flow fluorescence quenching rate)", "setting": "WT in PC liposomes, 0.3 mM PA, delay time 0.25", "result": 0.0402}, {"measurement": "Rate (stopped-flow fluorescence quenching rate)", "setting": "WT in PC liposomes, 0.3 mM PA, delay time 0.25, listed as PA", "result": "0.04925 and 0.03838 and 0.03298"}, {"measurement": "Avg (stopped-flow fluorescence quenching rate)", "setting": "WT in PC liposomes, 0.3 mM PA, delay time 0.5", "result": 0.1212}, {"measurement": "Rate (stopped-flow fluorescence quenching rate)", "setting": "WT in PC liposomes, 0.3 mM PA, delay time 0.5, listed as PA", "result": "0.0905 and 0.1754 and 0.09759"}, {"measurement": "Avg (stopped-flow fluorescence quenching rate)", "setting": "WT in PC liposomes, 0.3 mM PA, delay time 1", "result": 0.07413}, {"measurement": "Avg (stopped-flow fluorescence quenching rate)", "setting": "WT in PC liposomes, 0.3 mM PA, delay time 2.5", "result": 0.08146}, {"measurement": "Rate (stopped-flow fluorescence quenching rate)", "setting": "WT in PC liposomes, 0.3 mM PA, delay time 2.5, listed as PA", "result": "0.09799 and 0.04957 and 0.09682"}, {"measurement": "Avg (stopped-flow fluorescence quenching rate)", "setting": "WT in PC liposomes, 0.3 mM PA, delay time 5", "result": 0.09461}, {"measurement": "Avg (stopped-flow fluorescence quenching rate)", "setting": "[2]", "result": 0}, {"measurement": "Rate (stopped-flow fluorescence quenching rate)", "setting": "[2]", "result": 0}, {"measurement": "Avg (stopped-flow fluorescence quenching rate)", "setting": "WT in PC liposomes, 1 mM PA, delay time 0.01", "result": 0.0808}, {"measurement": "Rate (stopped-flow fluorescence quenching rate)", "setting": "WT in PC liposomes, 1 mM PA, delay time 0.01, listed as PA", "result": "0.07542 and 0.09146 and 0.07551"}, {"measurement": "Avg (stopped-flow fluorescence quenching rate)", "setting": "WT in PC liposomes, 1 mM PA, delay time 0.025", "result": 0.1635}, {"measurement": "Avg (stopped-flow fluorescence quenching rate)", "setting": "WT in PC liposomes, 1 mM PA, delay time 0.05", "result": 0.08808}, {"measurement": "Rate (stopped-flow fluorescence quenching rate)", "setting": "WT in PC liposomes, 1 mM PA, delay time 0.05, listed as PA", "result": "0.09304 and 0.1089 and 0.06236"}]}
